Laboratory results taken from US8580794B2 (AbbVie Inc., priority 2009, dated 2013).

biological target: GST-Bc1-2 (Homo sapiens, UniProt P10415); assay: Time Resolved-Fluorescence Resonance Energy Transfer (TR-FRET) Bcl-2 binding assay with F-Bak peptide probe; settings: GST-Bcl-2 1 nM, F-Bak probe 100 nM, Tb-anti-GST 1 nM; '<' = below limit of detection; read-out: TR-FRET Bcl-2 Binding Ki
Sequence (P10415 whole entry): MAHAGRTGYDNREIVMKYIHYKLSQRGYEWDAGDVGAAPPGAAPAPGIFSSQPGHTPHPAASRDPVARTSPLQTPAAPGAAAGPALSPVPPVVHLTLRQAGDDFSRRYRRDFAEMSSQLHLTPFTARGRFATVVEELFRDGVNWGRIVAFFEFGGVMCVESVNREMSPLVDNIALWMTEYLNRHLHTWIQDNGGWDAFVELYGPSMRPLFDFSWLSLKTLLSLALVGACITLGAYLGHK

Row | SMILES | Ki [nM]
1 | CC1(C)CCC(CN2CCN(c3ccc(C(=O)NS(=O)(=O)c4ccc(NC[C@@H]5CN(C6CC6)CCO5)c([N+](=O)[O-])c4)c(Oc4cnc5[nH]ccc5c4)c3)CC2)=C(c2ccc(Cl)cc2)C1 [Example 326, 4-(4-{[2-(4-chlorophenyl)-4,4-dimethylcyclohex-1-en-1-yl]methyl}piperazin-1-yl)-N-{[4-({[(2R)-4-cyclopropylmorpholin-2-yl]methyl}amino)-3-nitrophenyl]sulfonyl}-2-(1H-pyrrolo[2,3-b]pyridin-5-yloxy)benzamide] | < 0.01
2 | CC1(C)CCC(CN2CCN(c3ccc(C(=O)NS(=O)(=O)c4ccc(NC[C@H]5CN(C6CC6)CCO5)c([N+](=O)[O-])c4)c(Oc4cnc5[nH]ccc5c4)c3)CC2)=C(c2ccc(Cl)cc2)C1 [Example 327, 4-(4-{[2-(4-chlorophenyl)-4,4-dimethylcyclohex-1-en-1-yl]methyl}piperazin-1-yl)-N-{[4-({[(2S)-4-cyclopropylmorpholin-2-yl]methyl}amino)-3-nitrophenyl]sulfonyl}-2-(1H-pyrrolo[2,3-b]pyridin-5-yloxy)benzamide] | < 0.01
3 | O=C(NS(=O)(=O)c1ccc(NCC2CCOCC2)c([N+](=O)[O-])c1)c1ccc(N2CCN(CC3=C(c4ccc(Cl)cc4)CC4(CC3)CC4)CC2)cc1Oc1cnc2[nH]ccc2c1 [Example 328, 4-(4-{[5-(4-chlorophenyl)spiro[2.5]oct-5-en-6-yl]methyl}piperazin-1-yl)-N-({3-nitro-4-[(tetrahydro-2H-pyran-4-ylmethyl)amino]phenyl}sulfonyl)-2-(1H-pyrrolo[2,3-b]pyridin-5-yloxy)benzamide] | < 0.01
4 | CC1(C)CCC(CN2CCN(c3ccc(C(=O)NS(=O)(=O)c4cnc(OCC5CCC(N(C6CC6)C6COC6)CC5)c(Cl)c4)c(Oc4cnc5[nH]ccc5c4)c3)CC2)=C(c2ccc(Cl)cc2)C1 (stereo not drawn) [Example 329, N-{[5-chloro-6-({4-[cyclopropyl(oxetan-3-yl)amino]cyclohexyl}methoxy)pyridin-3-yl]sulfonyl}-4-(4-{[2-(4-chlorophenyl)-4,4-dimethylcyclohex-1-en-1-yl]methyl}piperazin-1-yl)-2-(1H-pyrrolo[2,3-b]pyridin-5-yloxy)benzamide] | 0.03
5 | O=C(NS(=O)(=O)c1ccc(NCC2CN(C3CC3)CCO2)c([N+](=O)[O-])c1)c1ccc(N2CCN(CC3=C(c4ccc(Cl)cc4)CC4(CC3)CC4)CC2)cc1Oc1cnc2[nH]ccc2c1 (stereo not drawn) [Example 330, 4-(4-{[5-(4-chlorophenyl)spiro[2.5]oct-5-en-6-yl]methyl}piperazin-1-yl)-N-[(4-{[(4-cyclopropylmorpholin-2-yl)methyl]amino}-3-nitrophenyl)sulfonyl]-2-(1H-pyrrolo[2,3-b]pyridin-5-yloxy)benzamide] | < 0.01
6 | CC1(C)CCC(CN2CCN(c3ccc(C(=O)NS(=O)(=O)c4ccc(OCC5CN(C6CC6)CCO5)c(Cl)c4)c(Oc4cnc5[nH]ccc5c4)c3)CC2)=C(c2ccc(Cl)cc2)C1 (stereo not drawn) [Example 331, N-({3-chloro-4-[(4-cyclopropylmorpholin-2-yl)methoxy]phenyl}sulfonyl)-4-(4-{[2-(4-chlorophenyl)-4,4-dimethylcyclohex-1-en-1-yl]methyl}piperazin-1-yl)-2-(1H-pyrrolo[2,3-b]pyridin-5-yloxy)benzamide] | 1.09
7 | CC1(C)CCC(CN2CCN(c3ccc(C(=O)NS(=O)(=O)c4ccc(NCC5CN(C6CC6)CCO5)c(Cl)c4)c(Oc4cnc5[nH]ccc5c4)c3)CC2)=C(c2ccc(Cl)cc2)C1 (stereo not drawn) [Example 332, N-[(3-chloro-4-{[(4-cyclopropylmorpholin-2-yl)methyl]amino}phenyl)sulfonyl]-4-(4-{[2-(4-chlorophenyl)-4,4-dimethylcyclohex-1-en-1-yl]methyl}piperazin-1-yl)-2-(1H-pyrrolo[2,3-b]pyridin-5-yloxy)benzamide] | 0.621
8 | CCN(C)C(=O)N1CCOC(CNc2ccc(S(=O)(=O)NC(=O)c3ccc(N4CCN(CC5=C(c6ccc(Cl)cc6)CC(C)(C)CC5)CC4)cc3Oc3cnc4[nH]ccc4c3)cc2Cl)C1 (stereo not drawn) [Example 333, 2-{[(2-chloro-4-{[4-(4-{[2-(4-chlorophenyl)-4,4-dimethylcyclohex-1-en-1-yl]methyl}piperazin-1-yl)-2-(1H-pyrrolo[2,3-b]pyridin-5-yloxy)benzoyl]sulfamoyl}phenyl)amino]methyl}-N-ethyl-N-methylmorpholine-4-carboxamide] | 0.511
9 | CCN(C)C(=O)N1CCO[C@H](COc2ncc(S(=O)(=O)NC(=O)c3ccc(N4CCN(CC5=C(c6ccc(Cl)cc6)CC(C)(C)CC5)CC4)cc3Oc3cnc4[nH]ccc4c3)cc2Cl)C1 [Example 334, (2S)-2-{[(3-chloro-5-{[4-(4-{[2-(4-chlorophenyl)-4,4-dimethylcyclohex-1-en-1-yl]methyl}piperazin-1-yl)-2-(1H-pyrrolo[2,3-b]pyridin-5-yloxy)benzoyl]sulfamoyl}pyridin-2-yl)oxy]methyl}-N-ethyl-N-methylmorpholine-4-carboxamide] | 0.572
10 | CC1(C)CCC(CN2CCN(c3ccc(C(=O)NS(=O)(=O)c4cnc(NCC5CN(C6CC6)CCO5)c(Cl)c4)c(Oc4cnc5[nH]ccc5c4)c3)CC2)=C(c2ccc(Cl)cc2)C1 (stereo not drawn) [Example 335, N-[(5-chloro-6-{[(4-cyclopropylmorpholin-2-yl)methyl]amino}pyridin-3-yl)sulfonyl]-4-(4-{[2-(4-chlorophenyl)-4,4-dimethylcyclohex-1-en-1-yl]methyl}piperazin-1-yl)-2-(1H-pyrrolo[2,3-b]pyridin-5-yloxy)benzamide] | 0.15
11 | CCN(C)C(=O)N1CCOC(CNc2ncc(S(=O)(=O)NC(=O)c3ccc(N4CCN(CC5=C(c6ccc(Cl)cc6)CC(C)(C)CC5)CC4)cc3Oc3cnc4[nH]ccc4c3)cc2Cl)C1 (stereo not drawn) [Example 336, 2-{[(3-chloro-5-{[4-(4-{[2-(4-chlorophenyl)-4,4-dimethylcyclohex-1-en-1-yl]methyl}piperazin-1-yl)-2-(1H-pyrrolo[2,3-b]pyridin-5-yloxy)benzoyl]sulfamoyl}pyridin-2-yl)amino]methyl}-N-ethyl-N-methylmorpholine-4-carboxamide] | 0.198
12 | CC1(C)CCC(CN2CCN(c3ccc(C(=O)NS(=O)(=O)c4ccc(NC5CCC(N(CCC#N)C6CC6)CC5)c([N+](=O)[O-])c4)c(Oc4cnc5[nH]ccc5c4)c3)CC2)=C(c2ccc(Cl)cc2)C1 (stereo not drawn) [Example 340, 4-(4-{[2-(4-chlorophenyl)-4,4-dimethylcyclohex-1-en-1-yl]methyl}piperazin-1-yl)-N-{[4-({4-[(2-cyanoethyl)(cyclopropyl)amino]cyclohexyl}amino)-3-nitrophenyl]sulfonyl}-2-(1H-pyrrolo[2,3-b]pyridin-5-yloxy)benzamide] | < 0.01
13 | CC1(C)CCC(CN2CCN(c3ccc(C(=O)NS(=O)(=O)c4cnc(OCC5CCc6nccn6C5)c(Cl)c4)c(Oc4cnc5[nH]ccc5c4)c3)CC2)=C(c2ccc(Cl)cc2)C1 (stereo not drawn) [Example 342, 4-(4-{[2-(4-chlorophenyl)-4,4-dimethylcyclohex-1-en-1-yl]methyl}piperazin-1-yl)-N-{[5-chloro-6-(5,6,7,8-tetrahydroimidazo[1,2-a]pyridin-6-ylmethoxy)pyridin-3-yl]sulfonyl}-2-(1H-pyrrolo[2,3-b]pyridin-5-yloxy)benzamide] | < 0.01
14 | O=C(NS(=O)(=O)c1cnc(OCC2(F)CCN(C3COC3)CC2)c(Cl)c1)c1ccc(N2CCN(CC3=C(c4ccc(Cl)cc4)CC4(CC3)CC4)CC2)cc1Oc1cnc2[nH]ccc2c1 [Example 345, N-[(5-chloro-6-{[4-fluoro-1-(oxetan-3-yl)piperidin-4-yl]methoxy}pyridin-3-yl)sulfonyl]-4-(4-{[5-(4-chlorophenyl)spiro[2.5]oct-5-en-6-yl]methyl}piperazin-1-yl)-2-(1H-pyrrolo[2,3-b]pyridin-5-yloxy)benzamide] | < 0.01
15 | CC1(C)CCC(CN2CCN(c3ccc(C(=O)NS(=O)(=O)c4ccc(NC5CCC(N6CCC(F)(F)C6)CC5)c([N+](=O)[O-])c4)c(Oc4cnc5[nH]ccc5c4)c3)CC2)=C(c2ccc(Cl)cc2)C1 (stereo not drawn) [Example 346, 4-(4-{[2-(4-chlorophenyl)-4,4-dimethylcyclohex-1-en-1-yl]methyl}piperazin-1-yl)-N-[(4-{[4-(3,3-difluoropyrrolidin-1-yl)cyclohexyl]amino}-3-nitrophenyl)sulfonyl]-2-(1H-pyrrolo[2,3-b]pyridin-5-yloxy)benzamide] | 0.042
16 | CC1(C)CCC(CN2CCN(c3ccc(C(=O)NS(=O)(=O)c4ccc(NC5CCC(NC6CC6(F)F)CC5)c([N+](=O)[O-])c4)c(Oc4cnc5[nH]ccc5c4)c3)CC2)=C(c2ccc(Cl)cc2)C1 (stereo not drawn) [Example 349, 4-(4-{[2-(4-chlorophenyl)-4,4-dimethylcyclohex-1-en-1-yl]methyl}piperazin-1-yl)-N-{[4-({4-[(2,2-difluorocyclopropyl)amino]cyclohexyl}amino)-3-nitrophenyl]sulfonyl}-2-(1H-pyrrolo[2,3-b]pyridin-5-yloxy)benzamide] | 0.023
17 | CC1(C)CCC(CN2CCN(c3ccc(C(=O)NS(=O)(=O)c4ccc(OCC5CCC6(CC5)COC6)c([N+](=O)[O-])c4)c(Oc4cnc5[nH]ccc5c4)c3)CC2)=C(c2ccc(Cl)cc2)C1 [Example 351, 4-(4-{[2-(4-chlorophenyl)-4,4-dimethylcyclohex-1-en-1-yl]methyl}piperazin-1-yl)-N-{[3-nitro-4-(2-oxaspiro[3.5]non-7-ylmethoxy)phenyl]sulfonyl}-2-(1H-pyrrolo[2,3-b]pyridin-5-yloxy)benzamide] | < 0.01
18 | O=C(NS(=O)(=O)c1ccc(NCC2CCOCC2)c([N+](=O)[O-])c1)c1ccc(N2CCN(CC3=C(c4ccc(Cl)cc4)CCC(CF)(CF)C3)CC2)cc1Oc1cnc2[nH]ccc2c1 [Example 353, 4-(4-{[2-(4-chlorophenyl)-5,5-bis(fluoromethyl)cyclohex-1-en-1-yl]methyl}piperazin-1-yl)-N-({3-nitro-4-[(tetrahydro-2H-pyran-4-ylmethyl)amino]phenyl}sulfonyl)-2-(1H-pyrrolo[2,3-b]pyridin-5-yloxy)benzamide] | < 0.01
